Test results from PMC3754872 (The Journal of Experimental Medicine, 2013).

Legend:
CXCR2 [1] = target: T1, CXCR2 (Mus musculus, UniProt P35343); assay: displacement of […]-IL-8 from CXCR2-expressing L1.[…] cells; assay type: binding
T1 sequence (P35343 1-359): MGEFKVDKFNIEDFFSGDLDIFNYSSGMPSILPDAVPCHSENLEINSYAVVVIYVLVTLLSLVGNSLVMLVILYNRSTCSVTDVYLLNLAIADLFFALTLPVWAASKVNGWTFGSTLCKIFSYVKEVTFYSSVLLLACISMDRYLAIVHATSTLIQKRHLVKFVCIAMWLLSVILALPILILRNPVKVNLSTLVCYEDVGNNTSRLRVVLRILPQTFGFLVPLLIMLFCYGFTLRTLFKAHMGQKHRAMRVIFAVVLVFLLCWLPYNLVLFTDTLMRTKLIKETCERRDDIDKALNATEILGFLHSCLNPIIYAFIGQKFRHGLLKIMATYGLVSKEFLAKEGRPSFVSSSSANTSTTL

CXCR2 [2] = target: T1, CXCR2; assay: inhibition of agonist-stimulated; assay type: biochemical

Structure (SMILES)	EC50 (CXCR2 [1])	IC50 (CXCR2 [2])
CC(C)CCC(O)[C@@H](C)[C@H]1CC[C@H]2[C@@H]3CC=C4C[C@@H](O)CC[C@]4(C)[C@H]3CC[C@]12C (stereo partly drawn) [22R-HC]	1320 ± 250 nM	
O=C(Nc1ccc([N+](=O)[O-])cc1O)Nc1ccccc1Br [SB225002]		16.6 ± 3.64 nM
